Biological target: T1, TGF-beta receptor type-1 (Homo sapiens, UniProt P36897)
T1 sequence (P36897 whole entry): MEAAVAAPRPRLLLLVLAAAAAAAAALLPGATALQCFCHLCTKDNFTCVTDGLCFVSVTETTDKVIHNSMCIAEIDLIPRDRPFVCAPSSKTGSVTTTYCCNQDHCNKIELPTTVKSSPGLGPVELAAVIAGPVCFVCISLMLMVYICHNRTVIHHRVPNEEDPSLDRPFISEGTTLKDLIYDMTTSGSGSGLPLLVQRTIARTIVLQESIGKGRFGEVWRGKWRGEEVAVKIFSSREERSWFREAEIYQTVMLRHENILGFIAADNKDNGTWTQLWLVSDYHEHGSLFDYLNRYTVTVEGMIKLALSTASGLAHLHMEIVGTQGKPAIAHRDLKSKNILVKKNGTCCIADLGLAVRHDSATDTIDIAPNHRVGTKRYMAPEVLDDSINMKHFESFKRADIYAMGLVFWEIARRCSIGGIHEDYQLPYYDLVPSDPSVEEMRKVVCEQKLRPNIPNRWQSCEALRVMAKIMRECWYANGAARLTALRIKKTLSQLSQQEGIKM
Assay: In vitro Assay
Method: The enzymatic activity of compounds of the present invention was monitored measuring the formation of ADP using the ADP-GLO Kinases assay. Following the incubation of the purified enzyme, a substrate and ATP, the produced ADP was converted into ATP, which in turn was converted into light by Ultra-Glo Luciferase. The luminescent signal positively correlated with ADP amount and kinase activity.

Structure (SMILES)	IC50 [nM]
Cc1nnc(-c2cc(Cl)ccc2F)cc1Nc1ccnc(NC(=O)C2CC2)c1 [US20240018122, Example 15]	< 1
CN1CCN(CCN(C)C(=O)c2cc3c(Nc4cnnc(-c5cc(Cl)ccc5F)c4)ccnc3[nH]2)CC1 [US20240018122, Example 40]	< 1
OCCC(CCO)N1CCN(CCOc2ccc3c(Nc4cnnc(-c5cc(Cl)ccc5F)c4)ccnc3c2)CC1 [US20240018122, Example 86]	< 1
Cc1nnc(-c2cc(Cl)ccc2F)cc1Nc1ccnc(NC(=O)CCN2CCNC(C(=O)O)C2)c1 (configuration not stated) [US20240018122, Example 92]	< 1

Results, then the compound that gave them:

IC50 [nM]	Structure (SMILES)
< 1	Cc1nnc(-c2cc(Cl)ccc2F)cc1Nc1ccnc(NC(=O)CCN2CCN(CCS(C)(=O)=O)CC2)c1 [US20240018122, Example 83]
< 1	Cc1nnc(-c2cc(Cl)ccc2F)cc1Nc1ccnc(NC(=O)CCN2CC[N+](C)(C)CC2)c1 [US20240018122, Example 110]
< 1	Cc1nnc(-c2cc(Cl)ccc2F)cc1Nc1ccnc(NC(=O)NCC2CCN(C)CC2)c1 [US20240018122, Example 142]

From BindingDB's records for patent US20240018122 (Chiesi Farmaceutici, 2024)
